One compound from patent US20250186454A1, “METHODS FOR TREATING ABERRANT BEHAVIOR AND MOTOR ACTIVITY” (LAPKO INC, dba AFECTA PHARMACEUTICALS, priority 2023, published 2025) can be followed below.

Structures are written as SMILES.

Data set [1] concerns patients with ASD. The experiment in a line: open-label observational trial, eight weeks, response scored using the ABC-C scale. The class given is in vivo, human. The protocol:
In an open-label observational trial by an investigator, 11 patients with ASD were treated for eight weeks with molindone starting at 5 mg/day and the dosage increased by the patient and caregiver in 5 mg increments as tolerated by the subjects up to a maximum dose of 25 mg/day or until amelioration of the aberrant behaviors was seen. Patient response was scored using the ABC-C scale.

Data set [2] can be described thus: pharmacokinetic study of equivalent doses by gastric absorption compared to sublingual absorption. It counts as in vivo. The protocol:
A study of equivalent doses of molindone administered by gastric absorption compared to sublingual absorption. […] Molindone is primarily, if not exclusively, metabolized by the liver (hepatic metabolism). The first metabolite of molindone obtained by liver metabolism is 3-ethyl-2-(hydroxymethyl)-5-[(morpholin-4-yl)methyl]-1,5,6,7tetrahydro-4H-indol-4-one. The level of this metabolite was also measured at the Cmax of the sublingual and gastric dosing regimens.

Setting [3] is: N=11, Week 8 vs baseline, p <0.0001.

As to `CCc1c(C)[nH]c2c1C(=O)C(CN1CCOCC1)CC2` (stereo not drawn) [molindone, 3-ethyl-2-methyl-5-(morpholin-4-ylmethyl)-1,5,6,7-tetrahydroindol-4-one], in data set [1] (ASD patients, eight weeks), the “body weight during the course of therapy (subjective responses from caregivers and subjects)” value is “noticeable and desirable weight loss”; the “somnolence during the course of the study” value is given as “none complained of increased somnolence”. Besides, the “ABC-C Total Score (0-174), Decrease from baseline (%)” value in data set [1] (N=11, Week 8 vs baseline, p 0.0001) amounted to 69.9%. In data set [1] (N=11, Week 8 vs baseline, p 0.0048), the “ABC-C Inappropriate speech (0-12), Decrease from baseline (%)” value was found to be 77%. The “ABC-C Lethargic/Withdrawn (0-48), Decrease from baseline (%)” value in data set [1] (N=11, Week 8 vs baseline, p 0.0069) worked out at 63.2%. Moreover, the “ABC-C Stereotypy (0-21), Decrease from baseline (%)” value in data set [1] (N=11, Week 8 vs baseline, p 0.0081) is recorded as 72.8%. Besides, in data set [1] (setting [3]), the “ABC-C Hyperactivity/Noncompliance (0-48), Decrease from baseline (%)” value is given as 62.4% and the “ABC-C Irratability (0-45), Decrease from baseline (%)” value was found to be 76.6%. In addition, the “ABC-C Scale Mean Score, Inappropriate speech (0-12), Week 8” value in data set [1] (N=11 ASD patients, 5 up to 25 mg/day, baseline 9.6, p 0.0048) turned out to be 2.2. Besides, the “ABC-C Scale Mean Score, Stereotypy (0-21), Week 8” value in data set [1] (N=11 ASD patients, 5 up to 25 mg/day, baseline 11.8, p 0.0081) is 3.2. Also, in data set [1] (N=11 ASD patients, 5 up to 25 mg/day, baseline 16.5, p 0.0069), the “ABC-C Scale Mean Score, Lethargic/Withdrawn (0-48), Week 8” value is on record as 6.4. In addition, the “ABC-C Scale Mean Score, Hyperactivity/Noncompliance (0-48), Week 8” value in data set [1] (N=11 ASD patients, 5 up to 25 mg/day, baseline 29.8, p <0.0001) came to 11.2. In addition, in data set [1] (N=11 ASD patients, 5 up to 25 mg/day, baseline 35.6, p <0.0001), the “ABC-C Scale Mean Score, Irratability (0-45), Week 8” value was 8.3. Further, the “ABC-C Scale Mean Score, Total Score (0-174), Week 8” value in data set [1] (N=11 ASD patients, 5 up to 25 mg/day, baseline 103.3, p 0.0001) is 31.3. In addition, the “reduction of symptoms in all five ABC-C categories, including stereotypy” value in data set [1] (during the eight-week study, all p values less than 0.05) is “significant improvement”. For the same compound, the T1/2 entry in data set [2] (non-gastric dosing regimen compared to gastric dosing) is given as “longer”. In addition, the “area under the curve (AUC)” value in data set [2] (sublingual dosing compared to gastric dosing) is recorded as “better”. Also, in data set [2] (sublingual dosing compared to gastric dosing, equivalent doses, FIG. 1), the “Cmax (highest plasma concentration of the drug)” value is listed as “higher”.
